# Test results taken from ChEMBL document CHEMBL4765227, “Hit to lead optimization of a series of N-[4-(1,3-benzothiazol-2-yl)phenyl]acetamides as monoacylglycerol lipase inhibitors with potential anticancer activity” (Eur J Med Chem, 2016).
# Experiments:
# Format in all cases: functional
# Details in all cases: read-out: GI
# NCI-H522 = assay: Growth inhibition of human NCI-H522 cells at 10 uM incubated for 48 hrs by sulforhodamine B assay relative to control
# OVCAR-8 = assay: Growth inhibition of human OVCAR-8 cells at 10 uM incubated for 48 hrs by sulforhodamine B assay relative to control
# HOP-62 = assay: Growth inhibition of human HOP-62 cells at 10 uM incubated for 48 hrs by sulforhodamine B assay relative to control
# SW-620 = assay: Growth inhibition of human SW-620 cells at 10 uM incubated for 48 hrs by sulforhodamine B assay relative to control
# MDA-MB-231 = assay: Growth inhibition of human MDA-MB-231 cells at 10 uM incubated for 48 hrs by sulforhodamine B assay relative to control
# UACC-257 = assay: Growth inhibition of human UACC-257 cells at 10 uM incubated for 48 hrs by sulforhodamine B assay relative to control
# LOX IMVI = assay: Growth inhibition of human LOX IMVI cells at 10 uM incubated for 48 hrs by sulforhodamine B assay relative to control
# OVCAR-5 = assay: Growth inhibition of human OVCAR-5 cells at 10 uM incubated for 48 hrs by sulforhodamine B assay relative to control
# NCI-H226 = assay: Growth inhibition of human NCI-H226 cells at 10 uM incubated for 48 hrs by sulforhodamine B assay relative to control
# UO-31 = assay: Growth inhibition of human UO-31 cells at 10 uM incubated for 48 hrs by sulforhodamine B assay relative to control
# NCI-H322M = assay: Growth inhibition of human NCI-H322M cells at 10 uM incubated for 48 hrs by sulforhodamine B assay relative to control
# SF-268 = assay: Growth inhibition of human SF-268 cells at 10 uM incubated for 48 hrs by sulforhodamine B assay relative to control
# COLO 205 = assay: Growth inhibition of human COLO 205 cells at 10 uM incubated for 48 hrs by sulforhodamine B assay relative to control
# HCC 2998 = assay: Growth inhibition of human HCC 2998 cells at 10 uM incubated for 48 hrs by sulforhodamine B assay relative to control
# SR = assay: Growth inhibition of human SR cells at 10 uM incubated for 48 hrs by sulforhodamine B assay relative to control
# OVCAR-3 = assay: Growth inhibition of human OVCAR-3 cells at 10 uM incubated for 48 hrs by sulforhodamine B assay relative to control
# SF-539 = assay: Growth inhibition of human SF-539 cells at 10 uM incubated for 48 hrs by sulforhodamine B assay relative to control
# PC-3 = assay: Growth inhibition of human PC-3 cells at 10 uM incubated for 48 hrs by sulforhodamine B assay relative to control
# U-251 = assay: Growth inhibition of human U-251 cells at 10 uM incubated for 48 hrs by sulforhodamine B assay relative to control
# MCF7 = assay: Growth inhibition of human MCF7 cells at 10 uM incubated for 48 hrs by sulforhodamine B assay relative to control
# OVCAR-4 = assay: Growth inhibition of human OVCAR-4 cells at 10 uM incubated for 48 hrs by sulforhodamine B assay relative to control
# MOLT-4 = assay: Growth inhibition of human MOLT-4 cells at 10 uM incubated for 48 hrs by sulforhodamine B assay relative to control
# ACHN = assay: Growth inhibition of human ACHN cells at 10 uM incubated for 48 hrs by sulforhodamine B assay relative to control
# DU-145 = assay: Growth inhibition of human DU-145 cells at 10 uM incubated for 48 hrs by sulforhodamine B assay relative to control
# 786-0 = assay: Growth inhibition of human 786-0 cells at 10 uM incubated for 48 hrs by sulforhodamine B assay relative to control
# RPMI-8226 = assay: Growth inhibition of human RPMI-8226 cells at 10 uM incubated for 48 hrs by sulforhodamine B assay relative to control
# RXF 393 = assay: Growth inhibition of human RXF 393 cells at 10 uM incubated for 48 hrs by sulforhodamine B assay relative to control
# KM12 = assay: Growth inhibition of human KM12 cells at 10 uM incubated for 48 hrs by sulforhodamine B assay relative to control
# M14 = assay: Growth inhibition of human M14 cells at 10 uM incubated for 48 hrs by sulforhodamine B assay relative to control
# HCT-116 = assay: Growth inhibition of human HCT-116 cells at 10 uM incubated for 48 hrs by sulforhodamine B assay relative to control
# SN12C = assay: Growth inhibition of human SN12C cells at 10 uM incubated for 48 hrs by sulforhodamine B assay relative to control
# MDA-MB-468 = assay: Growth inhibition of human MDA-MB-468 cells at 10 uM incubated for 48 hrs by sulforhodamine B assay relative to control
# HOP-92 = assay: Growth inhibition of human HOP-92 cells at 10 uM incubated for 48 hrs by sulforhodamine B assay relative to control
# NCI-H23 = assay: Growth inhibition of human NCI-H23 cells at 10 uM incubated for 48 hrs by sulforhodamine B assay relative to control
# Malme-3M = assay: Growth inhibition of human Malme-3M cells at 10 uM incubated for 48 hrs by sulforhodamine B assay relative to control
# CAKI-1 = assay: Growth inhibition of human CAKI-1 cells at 10 uM incubated for 48 hrs by sulforhodamine B assay relative to control
# NCI/ADR-RES = assay: Growth inhibition of human NCI/ADR-RES cells at 10 uM incubated for 48 hrs by sulforhodamine B assay relative to control
# SF-295 = assay: Growth inhibition of human SF-295 cells at 10 uM incubated for 48 hrs by sulforhodamine B assay relative to control
# Hs-578T = assay: Growth inhibition of human Hs-578T cells at 10 uM incubated for 48 hrs by sulforhodamine B assay relative to control
# A549 = assay: Growth inhibition of human A549/ATCC cells at 10 uM incubated for 48 hrs by sulforhodamine B assay relative to control
# HCT-15 = assay: Growth inhibition of human HCT-15 cells at 10 uM incubated for 48 hrs by sulforhodamine B assay relative to control
# HL-60(TB) = assay: Growth inhibition of human HL-60(TB) cells at 10 uM incubated for 48 hrs by sulforhodamine B assay relative to control
# HT-29 = assay: Growth inhibition of human HT-29 cells at 10 uM incubated for 48 hrs by sulforhodamine B assay relative to control
# SNB-75 = assay: Growth inhibition of human SNB-75 cells at 10 uM incubated for 48 hrs by sulforhodamine B assay relative to control
structure (smiles),measurement,setting,value
O=C(CNC1CCCCC1)Nc1ccc(-c2nc3ccccc3s2)cc1,inhibition of growth at 10 µM,NCI-H522,4.54%
same,inhibition of growth at 10 µM,OVCAR-8,0.73%
same,inhibition of growth at 10 µM,HOP-62,14.8%
same,inhibition of growth at 10 µM,SW-620,-0.38%
same,inhibition of growth at 10 µM,MDA-MB-231,53.8%
same,inhibition of growth at 10 µM,UACC-257,-4.65%
same,inhibition of growth at 10 µM,LOX IMVI,26.1%
same,inhibition of growth at 10 µM,OVCAR-5,5.32%
same,inhibition of growth at 10 µM,NCI-H226,19.7%
same,inhibition of growth at 10 µM,UO-31,43.5%
same,inhibition of growth at 10 µM,NCI-H322M,8.27%
same,inhibition of growth at 10 µM,SF-268,21.6%
same,inhibition of growth at 10 µM,COLO 205,4.58%
same,inhibition of growth at 10 µM,HCC 2998,12.7%
same,inhibition of growth at 10 µM,SR,90.3%
same,inhibition of growth at 10 µM,OVCAR-3,5.98%
same,inhibition of growth at 10 µM,SF-539,12.5%
same,inhibition of growth at 10 µM,PC-3,20.3%
same,inhibition of growth at 10 µM,U-251,34.9%
same,inhibition of growth at 10 µM,MCF7,72%
same,inhibition of growth at 10 µM,OVCAR-4,15.6%
same,inhibition of growth at 10 µM,MOLT-4,45.9%
same,inhibition of growth at 10 µM,ACHN,0.89%
same,inhibition of growth at 10 µM,DU-145,10.7%
same,inhibition of growth at 10 µM,786-0,29.4%
same,inhibition of growth at 10 µM,RPMI-8226,22.4%
same,inhibition of growth at 10 µM,RXF 393,31.5%
same,inhibition of growth at 10 µM,KM12,16.1%
same,inhibition of growth at 10 µM,M14,10.6%
same,inhibition of growth at 10 µM,HCT-116,23%
same,inhibition of growth at 10 µM,SN12C,13.3%
same,inhibition of growth at 10 µM,MDA-MB-468,64.1%
same,inhibition of growth at 10 µM,HOP-92,51.2%
same,inhibition of growth at 10 µM,NCI-H23,23.8%
same,inhibition of growth at 10 µM,Malme-3M,-5.44%
same,inhibition of growth at 10 µM,CAKI-1,14%
same,inhibition of growth at 10 µM,NCI/ADR-RES,11%
same,inhibition of growth at 10 µM,SF-295,14.1%
same,inhibition of growth at 10 µM,Hs-578T,15.8%
same,inhibition of growth at 10 µM,A549,12%
same,inhibition of growth at 10 µM,HCT-15,37.1%
same,inhibition of growth at 10 µM,HL-60(TB),33.2%
same,inhibition of growth at 10 µM,HT-29,37.7%
same,inhibition of growth at 10 µM,SNB-75,32.7%
O=C(CNCc1ccccc1)Nc1ccc(-c2nc3ccccc3s2)cc1,inhibition of growth at 10 µM,NCI-H522,9.64%
same,inhibition of growth at 10 µM,OVCAR-8,-1.99%
same,inhibition of growth at 10 µM,HOP-62,-6.53%
same,inhibition of growth at 10 µM,SW-620,-1.34%
same,inhibition of growth at 10 µM,MDA-MB-231,16.9%
same,inhibition of growth at 10 µM,UACC-257,4.97%
same,inhibition of growth at 10 µM,LOX IMVI,3.99%
same,inhibition of growth at 10 µM,OVCAR-5,12.3%
same,inhibition of growth at 10 µM,NCI-H226,15.8%
same,inhibition of growth at 10 µM,UO-31,20.5%
same,inhibition of growth at 10 µM,NCI-H322M,17.8%
same,inhibition of growth at 10 µM,SF-268,3.99%
same,inhibition of growth at 10 µM,COLO 205,-11.5%
same,inhibition of growth at 10 µM,HCC 2998,9.91%
same,inhibition of growth at 10 µM,SR,21.3%
same,inhibition of growth at 10 µM,OVCAR-3,8.88%
same,inhibition of growth at 10 µM,SF-539,17.8%
same,inhibition of growth at 10 µM,PC-3,19.1%
same,inhibition of growth at 10 µM,U-251,18.6%
same,inhibition of growth at 10 µM,MCF7,61.6%
same,inhibition of growth at 10 µM,OVCAR-4,2.46%
same,inhibition of growth at 10 µM,MOLT-4,12%
same,inhibition of growth at 10 µM,ACHN,0.1%
same,inhibition of growth at 10 µM,DU-145,-7.09%
same,inhibition of growth at 10 µM,786-0,8.55%
same,inhibition of growth at 10 µM,RPMI-8226,10.1%
same,inhibition of growth at 10 µM,RXF 393,-3.76%
same,inhibition of growth at 10 µM,KM12,2.66%
same,inhibition of growth at 10 µM,M14,3.6%
same,inhibition of growth at 10 µM,HCT-116,5.15%
same,inhibition of growth at 10 µM,SN12C,5.25%
same,inhibition of growth at 10 µM,MDA-MB-468,73.3%
same,inhibition of growth at 10 µM,HOP-92,15.1%
same,inhibition of growth at 10 µM,NCI-H23,9.23%
same,inhibition of growth at 10 µM,Malme-3M,-6.22%
same,inhibition of growth at 10 µM,CAKI-1,9.29%
same,inhibition of growth at 10 µM,NCI/ADR-RES,-0.82%
same,inhibition of growth at 10 µM,SF-295,6.24%
same,inhibition of growth at 10 µM,Hs-578T,-4.26%
same,inhibition of growth at 10 µM,A549,22.7%
same,inhibition of growth at 10 µM,HCT-15,8.74%
same,inhibition of growth at 10 µM,HL-60(TB),3.9%
same,inhibition of growth at 10 µM,HT-29,1.86%
same,inhibition of growth at 10 µM,SNB-75,18%
